Results taken from patent US12433865B2, “Compositions comprising PGI2-receptor agonists and processes for the preparation thereof” (Arena Pharmaceuticals, Inc., priority 2018, dated 2025).

Test: Release (dissolution) profile of capsules, USP Apparatus 2 (paddle)
Assay type: physicochemical
Conditions: 0.04 mg capsule; for Release rate (percentage of Compound 1 released over time): Poloxamer 188:food grade GMS 50:50
Description: USP Apparatus 2 (Paddle Apparatus) is described, for example, in the United States Pharmacopeial Convention, Feb. 1, 2012, Chapter <711> (“Dissolution”), incorporated by reference herein in its entirety. See http://www.usp.org/sites/default/files/usp_pdf/EN/USPNF/revisions/m99470-gc_711.pdf. The assembly from Apparatus 1 is used, except that a paddle formed from a blade and a shaft is used as the stirring element. The shaft is positioned so that its axis is not more than 2 mm from the vertical axis of the vessel at any point and rotates smoothly without significant wobble that could affect the results. The vertical center line of the blade passes through the axis of the shaft so that the bottom of the blade is flush with the bottom of the shaft. A distance of 25±2 mm between the bottom of the blade and the inside bottom of the vessel is maintained during the test. The metallic or suitably inert, rigid blade and shaft comprise a single entity. A suitable two-part detachable design may be used provided the assembly remains firmly engaged during the test. The paddle blade and shaft may be coated with a suitable coating so as to make them inert. The dosage unit is allowed to sink to the bottom of the vessel before rotation of the blade is started. A small, loose piece of nonreactive material, such as not more than a few turns of wire helix, may be attached to dosage units that would otherwise float. Other validated sinker devices may be used.
Unless otherwise specified, the release profiles for capsules were measured using USP Apparatus 2 (paddle).
All release profiles disclosed in Tables 3c-3p were measured with USP Apparatus 2 (paddle) at 50 rpm in 500 mL of aqueous sodium phosphate at a concentration of 0.05 M (pH=6.8). The values in a given table relate to capsules obtained from the same batch. Values shown represent mean values over a number of dissolution tests (“n” in each table) in each case.

O=C(O)COC[C@H]1CC[C@H](COC(=O)N(c2ccccc2)c2ccc(Cl)cc2)CC1 [Compound 1, 2-(((1r,4r)-4-(((4-chlorophenyl)(phenyl)carbamoyloxy)methyl)cyclohexyl)methoxy)acetic acid]
release profile post-curing (Poloxamer 188:food grade GMS 50:50, cured 18 hours, one week, two weeks and four weeks post-curing (FIG. 6)): remained substantially the same
Release rate (percentage of Compound 1 released over time) (1 wk (40° C.) storage, 30 min): 11.1%
Release rate (percentage of Compound 1 released over time) (1 wk (40° C.) storage, 60 min): 22.6%
Release rate (percentage of Compound 1 released over time) (1 wk (40° C.) storage, 120 min): 40.1%
Release rate (percentage of Compound 1 released over time) (1 wk (40° C.) storage, 180 min): 59.2%
Release rate (percentage of Compound 1 released over time) (1 wk (40° C.) storage, 240 min): 71.8%
Release rate (percentage of Compound 1 released over time) (1 wk (40° C.) storage, 360 min): 88.4%
Release rate (percentage of Compound 1 released over time) (1 wk (40° C.) storage, 480 min): 92.2%
Release rate (percentage of Compound 1 released over time) (1 wk (40° C.) storage, 600 min): 96.2%
Release rate (percentage of Compound 1 released over time) (1 wk (40° C.) storage, 720 min): 95.3%
Release rate (percentage of Compound 1 released over time) (1 wk (40° C.) storage, 735 min): 96.1%
Release rate (percentage of Compound 1 released over time) (2 wks (40° C.) storage, 30 min): 10.8%
Release rate (percentage of Compound 1 released over time) (2 wks (40° C.) storage, 60 min): 18.3%
Release rate (percentage of Compound 1 released over time) (2 wks (40° C.) storage, 120 min): 36.8%
Release rate (percentage of Compound 1 released over time) (2 wks (40° C.) storage, 180 min): 52.9%
Release rate (percentage of Compound 1 released over time) (2 wks (40° C.) storage, 240 min): 67.4%
Release rate (percentage of Compound 1 released over time) (2 wks (40° C.) storage, 360 min): 83.3%
Release rate (percentage of Compound 1 released over time) (2 wks (40° C.) storage, 480 min): 90.3%
Release rate (percentage of Compound 1 released over time) (2 wks (40° C.) storage, 600 min): 93.8%
Release rate (percentage of Compound 1 released over time) (2 wks (40° C.) storage, 720 min): 93.7%
Release rate (percentage of Compound 1 released over time) (2 wks (40° C.) storage, 735 min): 94.3%
Release rate (percentage of Compound 1 released over time) (4 wks (40° C.) storage, 30 min): 7.3%
Release rate (percentage of Compound 1 released over time) (4 wks (40° C.) storage, 60 min): 17.7%
Release rate (percentage of Compound 1 released over time) (4 wks (40° C.) storage, 120 min): 37.4%
Release rate (percentage of Compound 1 released over time) (4 wks (40° C.) storage, 180 min): 54.6%
Release rate (percentage of Compound 1 released over time) (4 wks (40° C.) storage, 240 min): 70.3%
Release rate (percentage of Compound 1 released over time) (4 wks (40° C.) storage, 360 min): 87.5%
Release rate (percentage of Compound 1 released over time) (4 wks (40° C.) storage, 480 min): 90,9%
Release rate (percentage of Compound 1 released over time) (4 wks (40° C.) storage, 600 min): 93.2%
Release rate (percentage of Compound 1 released over time) (4 wks (40° C.) storage, 720 min): 95.0%
Release rate (percentage of Compound 1 released over time) (4 wks (40° C.) storage, 735 min): 94.3%
Release rate (percentage of Compound 1 released over time) (18 hrs (50° C.) curing, 30 min): 14.3%
Release rate (percentage of Compound 1 released over time) (18 hrs (50° C.) curing, 60 min): 21.8%
Release rate (percentage of Compound 1 released over time) (18 hrs (50° C.) curing, 120 min): 39.9%
Release rate (percentage of Compound 1 released over time) (18 hrs (50° C.) curing, 180 min): 56.3%
Release rate (percentage of Compound 1 released over time) (18 hrs (50° C.) curing, 240 min): 72.6%
Release rate (percentage of Compound 1 released over time) (18 hrs (50° C.) curing, 360 min): 89.2%
Release rate (percentage of Compound 1 released over time) (18 hrs (50° C.) curing, 480 min): 93.5%
Release rate (percentage of Compound 1 released over time) (18 hrs (50° C.) curing, 600 min): 95.7%
Release rate (percentage of Compound 1 released over time) (18 hrs (50° C.) curing, 720 min): 96.9%
Release rate (percentage of Compound 1 released over time) (18 hrs (50° C.) curing, 735 min): 95.6%
Release rate (percentage of Compound 1 released over time) (T = 0 (pre-curing), 30 min): 11.0%
Release rate (percentage of Compound 1 released over time) (T = 0 (pre-curing), 60 min): 18.3%
Release rate (percentage of Compound 1 released over time) (T = 0 (pre-curing), 120 min): 30.1%
Release rate (percentage of Compound 1 released over time) (T = 0 (pre-curing), 180 min): 39.6%
Release rate (percentage of Compound 1 released over time) (T = 0 (pre-curing), 240 min): 48.8%
Release rate (percentage of Compound 1 released over time) (T = 0 (pre-curing), 360 min): 64.1%
